# Data reported in PubChem BioAssay AID2060328 (Molecular Pharmacology Branch, DTP, NCI, 2025).
# Values joined by “and” are separate entries in the source; they are usually repeats but may differ in a detail not shown here. Equal entries are not always repeated.
# Test system: MDA-MB-231 multicell spheroids, viability (%T/C)
# Assay: Anticancer human tumor MDA-MB-231 cell line growth inhibition [IpAb];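 further: viability read after seven days of drug exposure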;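 on viability, T/C: 100% = DMSO vehicle control viability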
# Conditions: for viability, T/C: stronger effect = lower value
# Procedure, shortened: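 Multi-cell spheroids of 60% tumour cells, 25% HUVEC and 15% MSC in ultra-low-attachment U-bottom wells, treated with agents combined with ipatasertib or abemaciclib. Half-log ranges top out near clinical Cmax, or 10 microM when Cmax is unknown.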
# [1] = curve of first compound, second compound 0.1 µM
# [2] = curve of first compound, second compound 0.316 µM
# [3] = curve of first compound, second compound 1 µM
# [4] = second compound 0.1 µM, first compound 0.0316 µM
# [5] = second compound 0.1 µM, first compound 0.1 µM
# [6] = second compound 0.1 µM, first compound 0.316 µM
# [7] = second compound 0.1 µM, first compound 1 µM
# [8] = second compound 0.1 µM, first compound 3.16 µM
# [9] = second compound 0.1 µM, first compound 10 µM
# [10] = second compound 0.316 µM, first compound 0.0316 µM
# [11] = second compound 0.316 µM, first compound 0.1 µM
# [12] = second compound 0.316 µM, first compound 0.316 µM
# [13] = second compound 0.316 µM, first compound 1 µM
# [14] = second compound 0.316 µM, first compound 3.16 µM
# [15] = second compound 0.316 µM, first compound 10 µM
# [16] = second compound 1 µM, first compound 0.0316 µM
# [17] = second compound 1 µM, first compound 0.1 µM
# [18] = second compound 1 µM, first compound 0.316 µM
# [19] = second compound 1 µM, first compound 1 µM
# [20] = second compound 1 µM, first compound 3.16 µM
# [21] = second compound 1 µM, first compound 10 µM
smiles,measurement,setting,value
C=CCn1c(=O)c2cnc(Nc3ccc(N4CCN(C)CC4)cc3)nc2n1-c1cccc(C(C)(C)O)n1,"viability, T/C",compound 0.0316 µM,99.7% and 119%
same,"viability, T/C",compound 0.1 µM,84.6% and 96.2%
same,"viability, T/C",compound 0.316 µM,34.6% and 37.5%
same,"viability, T/C",compound 1 µM,18.5% and 17.7%
same,"viability, T/C",compound 3.16 µM,16.1% and 15.1%
same,"viability, T/C",compound 10 µM,21.8% and 20.7%
same,IC50,curve of compound,0.221 µM and 0.246 µM
Cn1ncnc1[C@H]1c2n[nH]c(=O)c3cc(F)cc(c23)N[C@@H]1c1ccc(F)cc1,"viability, T/C",compound 0.000316 µM,99.2% and 96.9%
same,"viability, T/C",compound 0.001 µM,92.1% and 94%
same,"viability, T/C",compound 0.00316 µM,81.4% and 85.3%
same,"viability, T/C",compound 0.01 µM,79.3% and 79.6%
same,"viability, T/C",compound 0.0316 µM,77.7% and 75.4%
same,"viability, T/C",compound 0.1 µM,67.3% and 69.8%
same,IC50,curve of compound,> 0.1 µM
Cn1nccc1Nc1nccc(-c2ccn(C(CO)c3ccc(Cl)c(F)c3)c(=O)c2)n1 (centres undefined) + CC(C)NCC(C(=O)N1CCN(c2ncnc3c2C(C)CC3O)CC1)c1ccc(Cl)cc1,IC50,[1],0.259 µM
same,IC50,[2],0.0459 µM
same,IC50,[3],< 0.0316 µM
same,IC50,"curve of first compound, second compound 3.16 µM",< 0.0316 µM
same,IC50,"curve of first compound, second compound 10 µM",< 0.0316 µM
same,"viability, T/C",[4],64.3%
same,"viability, T/C",[5],53.5%
same,"viability, T/C",[6],48.7%
same,"viability, T/C",[7],43.1%
same,"viability, T/C",[8],25.2%
same,"viability, T/C",[9],18.7%
same,"viability, T/C",[10],52.8%
same,"viability, T/C",[11],43.8%
same,"viability, T/C",[12],38.1%
same,"viability, T/C",[13],29.3%
same,"viability, T/C",[14],23.5%
same,"viability, T/C",[15],18%
same,"viability, T/C",[16],38.7%
same,"viability, T/C",[17],36.1%
same,"viability, T/C",[18],32.2%
same,"viability, T/C",[19],27.8%
same,"viability, T/C",[20],16.3%
same,"viability, T/C",[21],15.3%
same,"viability, T/C","second compound 3.16 µM, first compound 0.0316 µM",34.3%
same,"viability, T/C","second compound 3.16 µM, first compound 0.1 µM",28.7%
same,"viability, T/C","second compound 3.16 µM, first compound 0.316 µM",27.1%
same,"viability, T/C","second compound 3.16 µM, first compound 1 µM",21.5%
same,"viability, T/C","second compound 3.16 µM, first compound 3.16 µM",12.9%
same,"viability, T/C","second compound 3.16 µM, first compound 10 µM",10.4%
same,"viability, T/C","second compound 10 µM, first compound 0.0316 µM",24.2%
same,"viability, T/C","second compound 10 µM, first compound 0.1 µM",22.8%
same,"viability, T/C","second compound 10 µM, first compound 0.316 µM",16.7%
same,"viability, T/C","second compound 10 µM, first compound 1 µM",14.9%
same,"viability, T/C","second compound 10 µM, first compound 3.16 µM",9%
same,"viability, T/C","second compound 10 µM, first compound 10 µM",6.42%
CC1(C)CCC(CN2CCN(c3ccc(C(=O)NS(=O)(=O)c4ccc(NCC5CCOCC5)c([N+](=O)[O-])c4)c(Oc4cnc5[nH]ccc5c4)c3)CC2)=C(c2ccc(Cl)cc2)C1 + CCN1CCN(Cc2ccc(Nc3ncc(F)c(-c4cc(F)c5nc(C)n(C(C)C)c5c4)n3)nc2)CC1,IC50,"curve of first compound, second compound 0.01 µM",5.85 µM
same,IC50,"curve of first compound, second compound 0.0316 µM",5.15 µM
same,IC50,[1],4.26 µM
same,IC50,[2],< 0.0316 µM
same,IC50,[3],3.22 µM
same,"viability, T/C","second compound 0.01 µM, first compound 0.0316 µM",102%
same,"viability, T/C","second compound 0.01 µM, first compound 0.1 µM",97.5%
same,"viability, T/C","second compound 0.01 µM, first compound 0.316 µM",100%
same,"viability, T/C","second compound 0.01 µM, first compound 1 µM",101%
same,"viability, T/C","second compound 0.01 µM, first compound 3.16 µM",94.8%
same,"viability, T/C","second compound 0.01 µM, first compound 10 µM",11%
same,"viability, T/C","second compound 0.0316 µM, first compound 0.0316 µM",86.7%
same,"viability, T/C","second compound 0.0316 µM, first compound 0.1 µM",81.8%
same,"viability, T/C","second compound 0.0316 µM, first compound 0.316 µM",82.2%
same,"viability, T/C","second compound 0.0316 µM, first compound 1 µM",83.2%
same,"viability, T/C","second compound 0.0316 µM, first compound 3.16 µM",78.6%
same,"viability, T/C","second compound 0.0316 µM, first compound 10 µM",11.2%
same,"viability, T/C",[4],64.2%
same,"viability, T/C",[5],66.6%
same,"viability, T/C",[6],63.9%
same,"viability, T/C",[7],65%
same,"viability, T/C",[8],66.4%
same,"viability, T/C",[9],6.54%
same,"viability, T/C",[10],50.5%
same,"viability, T/C",[11],50.4%
same,"viability, T/C",[12],48.2%
same,"viability, T/C",[13],47.9%
same,"viability, T/C",[14],44.8%
same,"viability, T/C",[15],7.02%
same,"viability, T/C",[16],48.2%
same,"viability, T/C",[17],52.7%
same,"viability, T/C",[18],52.9%
same,"viability, T/C",[19],53.4%
same,"viability, T/C",[20],50.7%
same,"viability, T/C",[21],7.14%
